What was measured:
Details in all cases: compound at 10 μM
[1] = target: T1, Human melanin-concentrating hormone (MCH1) (Homo sapiens, UniProt Q99705); assay: Radioligand binding, human melanin-concentrating hormone MCH1 membranes, FlashPlate, [125I]-S36057
T1 construct: purchased Perkin Elmer Biosignal
Outline: (§1)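 Cloned human receptor membranes were coated onto FlashPlate wells and incubated with radioligand and compound (added from a 0.5 mM DMSO daughter plate) for 1 hour at room temperature in the dark. Scintillation counting gave percent inhibition, with DMSO defining total and reference ligand defining non-specific binding.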

Human κ-Opioid (KOP) = target: T2, Human κ-Opioid (KOP) (Homo sapiens, UniProt P41145); assay: Radioligand binding, human κ-opioid (KOP) membranes, filtration, [3H]-Diprenorphine
T2 construct: purchased Perkin Elmer Biosignal
T2 sequence (P41145 whole entry): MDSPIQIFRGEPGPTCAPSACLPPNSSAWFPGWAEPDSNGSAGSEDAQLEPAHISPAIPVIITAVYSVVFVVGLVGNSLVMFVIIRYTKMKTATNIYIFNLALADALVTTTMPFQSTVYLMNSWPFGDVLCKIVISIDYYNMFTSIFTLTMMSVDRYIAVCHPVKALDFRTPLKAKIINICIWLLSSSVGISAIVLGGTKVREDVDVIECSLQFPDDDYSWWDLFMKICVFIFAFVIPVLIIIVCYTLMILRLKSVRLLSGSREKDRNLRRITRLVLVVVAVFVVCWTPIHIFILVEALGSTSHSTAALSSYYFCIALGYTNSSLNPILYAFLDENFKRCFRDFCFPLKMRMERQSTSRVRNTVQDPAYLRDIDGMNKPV
Outline: (§2)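 Percent inhibition of radioligand binding measured on recombinant human membranes: NK1 with [125I]-Substance P, KOP with [3H]-Diprenorphine. Incubation 1 h at room temperature, then harvest onto 0.3% PEI-soaked filters, cold Tris-HCl pH 7.4 washes and scintillation counting; non-specific binding from reference ligand wells.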

Human Melanocortin (MC4) = target: T3, Human Melanocortin (MC4) (Homo sapiens, UniProt P32245); assay: Radioligand binding, human melanocortin MC4 membranes, FlashPlate, [125I]-NDP-αMSH
T3 construct: purchased Perkin Elmer Biosignal
T3 sequence (P32245 whole entry): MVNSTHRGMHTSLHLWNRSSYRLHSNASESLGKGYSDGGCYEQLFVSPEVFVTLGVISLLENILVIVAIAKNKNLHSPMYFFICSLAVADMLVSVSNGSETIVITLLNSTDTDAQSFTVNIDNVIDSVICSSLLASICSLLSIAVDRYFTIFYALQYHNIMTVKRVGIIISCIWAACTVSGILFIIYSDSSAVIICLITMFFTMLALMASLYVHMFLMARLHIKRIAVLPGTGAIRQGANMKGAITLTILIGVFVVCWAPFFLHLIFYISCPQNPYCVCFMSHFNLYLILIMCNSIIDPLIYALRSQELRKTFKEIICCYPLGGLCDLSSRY
Outline: as §1

Human Melanocortin (MC3) = target: T4, Human Melanocortin (MC3) (Homo sapiens, UniProt P41968); assay: Radioligand binding, human melanocortin MC3 membranes, FlashPlate, [125I]-NDP-αMSH
T4 construct: purchased Perkin Elmer Biosignal
T4 sequence (P41968 whole entry): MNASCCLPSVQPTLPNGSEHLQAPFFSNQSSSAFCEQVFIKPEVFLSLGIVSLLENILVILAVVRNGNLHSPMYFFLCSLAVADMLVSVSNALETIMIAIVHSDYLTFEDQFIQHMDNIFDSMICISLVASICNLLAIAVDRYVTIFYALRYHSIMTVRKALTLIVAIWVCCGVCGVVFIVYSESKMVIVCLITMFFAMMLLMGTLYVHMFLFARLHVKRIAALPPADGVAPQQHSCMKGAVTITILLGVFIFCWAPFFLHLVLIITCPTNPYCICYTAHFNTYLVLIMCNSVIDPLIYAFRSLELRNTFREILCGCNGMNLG
Outline: as §1

Human opioid (ORL1) = target: T5, Human opioid (ORL1) (Homo sapiens, UniProt P41146); assay: Radioligand binding, human opioid ORL1 membranes, FlashPlate, [125I]-Nociceptin
T5 construct: purchased Perkin Elmer Biosignal
T5 sequence (P41146 whole entry): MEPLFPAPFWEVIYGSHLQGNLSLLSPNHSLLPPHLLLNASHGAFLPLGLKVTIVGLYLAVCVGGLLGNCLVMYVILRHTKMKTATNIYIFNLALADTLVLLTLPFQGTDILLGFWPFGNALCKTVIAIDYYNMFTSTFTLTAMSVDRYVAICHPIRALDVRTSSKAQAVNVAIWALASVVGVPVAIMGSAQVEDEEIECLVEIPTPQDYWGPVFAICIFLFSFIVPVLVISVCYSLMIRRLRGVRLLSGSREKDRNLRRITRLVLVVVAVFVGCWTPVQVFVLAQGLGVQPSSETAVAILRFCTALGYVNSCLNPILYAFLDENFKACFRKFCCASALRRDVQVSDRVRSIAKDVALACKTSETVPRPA
Outline: as §1

Human melanocortin (MC5) = target: T6, Human melanocortin (MC5) (Homo sapiens, UniProt P33032); assay: Radioligand binding, human melanocortin MC5 membranes, FlashPlate, [125I]-NDP-αMSH
T6 construct: purchased Perkin Elmer Biosignal
T6 sequence (P33032 whole entry): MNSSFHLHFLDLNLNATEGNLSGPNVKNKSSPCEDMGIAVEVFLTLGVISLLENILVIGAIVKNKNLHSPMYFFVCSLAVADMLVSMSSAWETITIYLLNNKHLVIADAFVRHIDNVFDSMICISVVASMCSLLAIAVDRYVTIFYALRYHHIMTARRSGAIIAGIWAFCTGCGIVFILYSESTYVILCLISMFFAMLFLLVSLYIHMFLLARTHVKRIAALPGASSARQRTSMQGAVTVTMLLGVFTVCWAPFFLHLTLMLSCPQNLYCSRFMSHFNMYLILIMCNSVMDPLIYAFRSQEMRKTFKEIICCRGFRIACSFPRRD
Outline: as §1

[2] = target: T7, Human neuropeptide Y (NPY-Y1) (Homo sapiens, UniProt P25929); assay: Radioligand binding, human neuropeptide Y NPY-Y1 membranes, FlashPlate, [125I]-PYY
T7 construct: purchased Perkin Elmer Biosignal
T7 sequence (P25929 1-384): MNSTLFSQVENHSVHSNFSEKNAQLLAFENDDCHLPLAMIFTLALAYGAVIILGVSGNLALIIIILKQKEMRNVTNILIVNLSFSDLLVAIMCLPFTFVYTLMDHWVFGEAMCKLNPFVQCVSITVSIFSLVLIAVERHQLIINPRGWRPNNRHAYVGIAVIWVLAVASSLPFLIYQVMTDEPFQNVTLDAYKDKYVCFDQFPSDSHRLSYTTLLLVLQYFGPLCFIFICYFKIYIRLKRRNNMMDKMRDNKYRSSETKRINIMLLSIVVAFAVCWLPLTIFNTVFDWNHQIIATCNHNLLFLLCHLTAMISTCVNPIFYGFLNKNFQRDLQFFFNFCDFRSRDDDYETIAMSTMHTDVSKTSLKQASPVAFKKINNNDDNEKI
Outline: as §1

Human neurokinin (NK1) = target: T8, Human neurokinin (NK1) (Homo sapiens, UniProt P25103); assay: Radioligand binding, human neurokinin NK1 membranes, filtration, [125I]-Substance P
T8 construct: purchased Perkin Elmer Biosignal
T8 sequence (P25103 whole entry): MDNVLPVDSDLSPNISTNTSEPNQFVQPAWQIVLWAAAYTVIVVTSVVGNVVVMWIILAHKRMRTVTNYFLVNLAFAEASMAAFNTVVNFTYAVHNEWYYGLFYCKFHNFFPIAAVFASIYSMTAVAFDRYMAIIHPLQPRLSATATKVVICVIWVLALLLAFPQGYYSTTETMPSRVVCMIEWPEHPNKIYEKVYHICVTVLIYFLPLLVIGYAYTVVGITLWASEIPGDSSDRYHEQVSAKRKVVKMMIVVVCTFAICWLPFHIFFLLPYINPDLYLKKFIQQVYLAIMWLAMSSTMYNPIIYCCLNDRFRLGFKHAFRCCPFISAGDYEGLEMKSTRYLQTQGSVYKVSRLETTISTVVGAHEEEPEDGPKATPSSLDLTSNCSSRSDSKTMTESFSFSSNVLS
Outline: as §2

Mouse urotensin (mUR2) = target: T9, Mouse urotensin (mUR2) (Mus musculus, UniProt Q8VIH9); assay: Radioligand binding, mouse urotensin mUR2 membranes, FlashPlate, [125I]-Urotensin II
T9 construct: purchased Perkin Elmer Biosignal
T9 sequence (Q8VIH9 1-385): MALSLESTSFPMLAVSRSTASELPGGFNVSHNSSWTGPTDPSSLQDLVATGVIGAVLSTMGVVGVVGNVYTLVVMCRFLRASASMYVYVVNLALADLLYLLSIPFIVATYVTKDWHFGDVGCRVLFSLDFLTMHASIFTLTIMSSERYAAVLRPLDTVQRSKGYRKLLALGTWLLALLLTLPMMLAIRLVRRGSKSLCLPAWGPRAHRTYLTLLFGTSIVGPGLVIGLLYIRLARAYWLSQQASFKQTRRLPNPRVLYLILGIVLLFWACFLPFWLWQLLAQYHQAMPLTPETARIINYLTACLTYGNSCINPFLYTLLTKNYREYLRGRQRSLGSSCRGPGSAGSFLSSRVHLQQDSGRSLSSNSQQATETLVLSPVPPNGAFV
Outline: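 Cloned mouse urotensin (mUR2) receptor membranes from Perkin Elmer Biosignal were immobilized in FlashPlate microplates using a proprietary coating. Each well got 19.5 μl buffer, then 0.5 μl of DMSO, reference ligand, or compound. Adding 5 μl of [125I]-Urotensin II, diluted to 5× final concentration in binding buffer, started binding. Plates were sealed with TopSeal-A and incubated 1 hour at room temperature in the dark. Wells were counted for 30 seconds each on a TopCount after a 60-second delay, and percentage inhibition was calculated.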

Human δ-opioid (DOP) = target: T10, Human δ-opioid (DOP) (Homo sapiens, UniProt P41143); assay: Radioligand binding, human δ-opioid (DOP) membranes, FlashPlate, [3H]-Bremazocine
T10 construct: purchased Perkin Elmer Biosignal
T10 sequence (P41143 whole entry): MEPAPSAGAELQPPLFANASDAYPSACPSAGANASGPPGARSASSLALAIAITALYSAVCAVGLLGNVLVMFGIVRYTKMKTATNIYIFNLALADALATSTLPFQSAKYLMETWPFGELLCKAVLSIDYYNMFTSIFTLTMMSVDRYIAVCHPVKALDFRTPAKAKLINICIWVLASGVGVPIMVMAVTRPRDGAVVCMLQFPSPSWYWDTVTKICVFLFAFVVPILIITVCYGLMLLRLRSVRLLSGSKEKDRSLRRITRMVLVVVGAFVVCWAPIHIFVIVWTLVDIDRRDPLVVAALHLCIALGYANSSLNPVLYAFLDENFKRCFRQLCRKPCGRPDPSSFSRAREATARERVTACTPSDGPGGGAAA
Outline: as §1

Human μ-opioid (MOP) = target: T11, Human μ-opioid (MOP) (Homo sapiens, UniProt P35372); assay: Radioligand binding, human μ-opioid (MOP) membranes, FlashPlate, [3H]-Naloxone
T11 construct: purchased Perkin Elmer Biosignal
T11 sequence (P35372 whole entry): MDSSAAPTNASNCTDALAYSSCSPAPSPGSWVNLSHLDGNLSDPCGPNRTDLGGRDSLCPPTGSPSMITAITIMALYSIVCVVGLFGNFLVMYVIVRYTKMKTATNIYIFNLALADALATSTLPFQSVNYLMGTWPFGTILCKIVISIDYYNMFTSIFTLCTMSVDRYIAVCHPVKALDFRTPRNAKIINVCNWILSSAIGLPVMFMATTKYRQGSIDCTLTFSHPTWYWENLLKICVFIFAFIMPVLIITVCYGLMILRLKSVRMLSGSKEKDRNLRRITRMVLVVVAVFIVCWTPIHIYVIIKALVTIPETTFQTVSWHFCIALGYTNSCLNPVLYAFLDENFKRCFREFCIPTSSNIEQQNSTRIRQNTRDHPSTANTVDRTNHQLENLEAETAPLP
Outline: as §1

T1 sequence (Q99705 whole entry): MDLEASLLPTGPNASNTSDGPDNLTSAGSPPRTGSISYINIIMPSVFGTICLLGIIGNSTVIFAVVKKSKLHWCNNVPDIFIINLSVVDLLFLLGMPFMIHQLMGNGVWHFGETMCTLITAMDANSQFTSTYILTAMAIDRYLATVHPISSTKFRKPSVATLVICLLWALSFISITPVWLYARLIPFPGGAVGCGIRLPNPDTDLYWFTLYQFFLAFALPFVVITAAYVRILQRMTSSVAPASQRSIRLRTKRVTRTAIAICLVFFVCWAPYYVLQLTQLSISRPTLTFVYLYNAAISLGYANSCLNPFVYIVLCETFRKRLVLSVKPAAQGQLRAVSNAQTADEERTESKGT

COC[C@H]1OC(OCc2ccccc2)[C@H](NC(=O)CNC(=N)N)[C@@H](OCc2ccc(-c3ccccc3)cc2)[C@@H]1O (stereo partly shown) [compound 23]
A6 radioligand binding inhibition ([1]; human MCH1 membranes): + (“+” indicates greater than 50% inhibition at 10 μM)
A2 radioligand binding inhibition (Human κ-Opioid (KOP); human κ-opioid (KOP) membranes): − (“−” indicates less than 50% inhibition at 10 μM)
A4 radioligand binding inhibition (Human Melanocortin (MC4); human melanocortin MC4 membranes): − (“−” indicates less than 50% inhibition at 10 μM)
A3 radioligand binding inhibition (Human Melanocortin (MC3); human melanocortin MC3 membranes): − (“−” indicates less than 50% inhibition at 10 μM)
A10 radioligand binding inhibition (Human opioid (ORL1); human ORL1 membranes): − (“−” indicates less than 50% inhibition at 10 μM)
A5 radioligand binding inhibition (Human melanocortin (MC5); human melanocortin MC5 membranes): + (“+” indicates greater than 50% inhibition at 10 μM)
A9 radioligand binding inhibition ([2]; human NPY-Y1 membranes): − (“−” indicates less than 50% inhibition at 10 μM)
A8 radioligand binding inhibition (Human neurokinin (NK1); human neurokinin NK1 membranes): + (“+” indicates greater than 50% inhibition at 10 μM)
A11 radioligand binding inhibition (Mouse urotensin (mUR2); mouse urotensin mUR2 membranes): − (“−” indicates less than 50% inhibition at 10 μM)
A1 radioligand binding inhibition (Human δ-opioid (DOP); human δ-opioid (DOP) membranes): − (“−” indicates less than 50% inhibition at 10 μM)
A7 radioligand binding inhibition (Human μ-opioid (MOP); human μ-opioid (MOP) membranes): − (“−” indicates less than 50% inhibition at 10 μM)

NCCC(=O)NC1C(OCc2ccc3ccccc3c2)OC(COCc2ccc(Cl)cc2)C(O)C1OCc1ccccc1 (single isomer, unassigned) [compound 453]
A6: inhibition of radioligand binding ([1]; [125I]-S36057, human MCH1 membranes, 10 µM): + (“+” indicates greater than 50% inhibition at 10 μM)
A2: inhibition of radioligand binding (Human κ-Opioid (KOP); [3H]-Diprenorphine, human KOP membranes): − (“−” indicates less than 50% inhibition at 10 μM)
A4: inhibition of radioligand binding (Human Melanocortin (MC4); [125I]-NDP-αMSH, human MC4 membranes): + (“+” indicates greater than 50% inhibition at 10 μM)
A3: inhibition of radioligand binding (Human Melanocortin (MC3); [125I]-NDP-αMSH, human MC3 membranes, 10 µM): + (“+” indicates greater than 50% inhibition at 10 μM)
A10: inhibition of radioligand binding (Human opioid (ORL1); [125I]-Nociceptin, human ORL1 membranes, 10 µM): − (“−” indicates less than 50% inhibition at 10 μM)
A5: inhibition of radioligand binding (Human melanocortin (MC5); [125I]-NDP-αMSH, human MC5 membranes): + (“+” indicates greater than 50% inhibition at 10 μM)
A9: inhibition of radioligand binding ([2]; [125I]-PYY, human NPY-Y1 membranes): − (“−” indicates less than 50% inhibition at 10 μM)
A8: inhibition of radioligand binding (Human neurokinin (NK1); [125I]-Substance P, human NK1 membranes): + (“+” indicates greater than 50% inhibition at 10 μM)
A11: inhibition of radioligand binding (Mouse urotensin (mUR2); [125I]-Urotensin II, mouse mUR2 membranes): − (“−” indicates less than 50% inhibition at 10 μM)
A1: inhibition of radioligand binding (Human δ-opioid (DOP); [3H]-Bremazocine, human DOP membranes): − (“−” indicates less than 50% inhibition at 10 μM)
A7: inhibition of radioligand binding (Human μ-opioid (MOP); [3H]-Naloxone, human MOP membranes): − (“−” indicates less than 50% inhibition at 10 μM)

COC1C(O)C(COCc2ccc3ccccc3c2)OC(OCc2ccc(Cl)cc2)C1NC(=O)C1CCCN1 (stereo not shown) [compound 347]
A6: inhibition of radioligand binding, human melanin-concentrating hormone (MCH1) ([1]; [125I]-S36057): − (“−” indicates less than 50% inhibition at 10 μM)
A2: inhibition of radioligand binding, human κ-opioid (KOP) (Human κ-Opioid (KOP); [3H]-Diprenorphine): − (“−” indicates less than 50% inhibition at 10 μM)
A4: inhibition of radioligand binding, human melanocortin (MC4) (Human Melanocortin (MC4); [125I]-NDP-αMSH): − (“−” indicates less than 50% inhibition at 10 μM)
A3: inhibition of radioligand binding, human melanocortin (MC3) (Human Melanocortin (MC3); [125I]-NDP-αMSH): − (“−” indicates less than 50% inhibition at 10 μM)
A10: inhibition of radioligand binding, human opioid (ORL1) (Human opioid (ORL1); [125I]-Nociceptin): − (“−” indicates less than 50% inhibition at 10 μM)
A5: inhibition of radioligand binding, human melanocortin (MC5) (Human melanocortin (MC5); [125I]-NDP-αMSH): − (“−” indicates less than 50% inhibition at 10 μM)
A9: inhibition of radioligand binding, human neuropeptide Y (NPY-Y1) ([2]; [125I]-PYY): − (“−” indicates less than 50% inhibition at 10 μM)
A8: inhibition of radioligand binding, human neurokinin (NK1) (Human neurokinin (NK1); [125I]-Substance P): + (“+” indicates greater than 50% inhibition at 10 μM)
A11: inhibition of radioligand binding, mouse urotensin (mUR2) (Mouse urotensin (mUR2); [125I]-Urotensin II): − (“−” indicates less than 50% inhibition at 10 μM)
A1: inhibition of radioligand binding, human δ-opioid (DOP) (Human δ-opioid (DOP); [3H]-Bremazocine): − (“−” indicates less than 50% inhibition at 10 μM)
A7: inhibition of radioligand binding, human μ-opioid (MOP) (Human μ-opioid (MOP); [3H]-Naloxone): − (“−” indicates less than 50% inhibition at 10 μM)

NCCCC(=O)NC1C(OCc2ccc(Cl)cc2)OC(COCc2ccc(Cl)cc2)C(O)C1OCc1ccccc1 (single isomer, unassigned) [compound 505]
A6: inhibition of radioligand binding, human melanin-concentrating hormone (MCH1) ([1]; [125I]-S36057): − (“−” indicates less than 50% inhibition at 10 μM)
A2: inhibition of radioligand binding, human κ-opioid (KOP) (Human κ-Opioid (KOP); [3H]-Diprenorphine): − (“−” indicates less than 50% inhibition at 10 μM)
A4: inhibition of radioligand binding, human melanocortin (MC4) (Human Melanocortin (MC4); [125I]-NDP-αMSH): − (“−” indicates less than 50% inhibition at 10 μM)
A3: inhibition of radioligand binding, human melanocortin (MC3) (Human Melanocortin (MC3); [125I]-NDP-αMSH): − (“−” indicates less than 50% inhibition at 10 μM)
A10: inhibition of radioligand binding, human opioid (ORL1) (Human opioid (ORL1); [125I]-Nociceptin, 10 µM): − (“−” indicates less than 50% inhibition at 10 μM)
A5: inhibition of radioligand binding, human melanocortin (MC5) (Human melanocortin (MC5); [125I]-NDP-αMSH): + (“+” indicates greater than 50% inhibition at 10 μM)
A9: inhibition of radioligand binding, human neuropeptide Y (NPY-Y1) ([2]; [125I]-PYY): − (“−” indicates less than 50% inhibition at 10 μM)
A8: inhibition of radioligand binding, human neurokinin (NK1) (Human neurokinin (NK1); [125I]-Substance P): + (“+” indicates greater than 50% inhibition at 10 μM)
A11: inhibition of radioligand binding, mouse urotensin (mUR2) (Mouse urotensin (mUR2); [125I]-Urotensin II): − (“−” indicates less than 50% inhibition at 10 μM)
A1: inhibition of radioligand binding, human δ-opioid (DOP) (Human δ-opioid (DOP); [3H]-Bremazocine): − (“−” indicates less than 50% inhibition at 10 μM)
A7: inhibition of radioligand binding, human μ-opioid (MOP) (Human μ-opioid (MOP); [3H]-Naloxone, 10 µM): + (“+” indicates greater than 50% inhibition at 10 μM)

COC1O[C@H](COCC(=O)O)[C@@H](O)[C@H](OCc2ccccc2)[C@H]1NC(=O)c1cnc[nH]1 (stereo partly shown) [compound 128]
A6 radioligand binding, percentage inhibition ([1]; [125I]-S36057): − (“−” indicates less than 50% inhibition at 10 μM)
A2 radioligand binding, percentage inhibition (Human κ-Opioid (KOP); [3H]-Diprenorphine): − (“−” indicates less than 50% inhibition at 10 μM)
A4 radioligand binding, percentage inhibition (Human Melanocortin (MC4); [125I]-NDP-αMSH): − (“−” indicates less than 50% inhibition at 10 μM)
A3 radioligand binding, percentage inhibition (Human Melanocortin (MC3); [125I]-NDP-αMSH): − (“−” indicates less than 50% inhibition at 10 μM)
A10 radioligand binding, percentage inhibition (Human opioid (ORL1); [125I]-Nociceptin): − (“−” indicates less than 50% inhibition at 10 μM)
A5 radioligand binding, percentage inhibition (Human melanocortin (MC5); [125I]-NDP-αMSH): − (“−” indicates less than 50% inhibition at 10 μM)
A9 radioligand binding, percentage inhibition ([2]; [125I]-PYY): − (“−” indicates less than 50% inhibition at 10 μM)
A8 radioligand binding, percentage inhibition (Human neurokinin (NK1); [125I]-Substance P): + (“+” indicates greater than 50% inhibition at 10 μM)
A11 radioligand binding, percentage inhibition (Mouse urotensin (mUR2); [125I]-Urotensin II): − (“−” indicates less than 50% inhibition at 10 μM)
A1 radioligand binding, percentage inhibition (Human δ-opioid (DOP); [3H]-Bremazocine): − (“−” indicates less than 50% inhibition at 10 μM)
A7 radioligand binding, percentage inhibition (Human μ-opioid (MOP); [3H]-Naloxone): − (“−” indicates less than 50% inhibition at 10 μM)
